Data from patent US20240226107A1, “UBIQUITIN-SPECIFIC PROTEASE 1 (USP1) INHIBITOR” (SIMCERE ZAIMING PHARMACEUTICAL CO., LTD., priority 2021, published 2024).

How the values were obtained:
CYP2D6 = CYP2D6 (Homo sapiens (Human), UniProt P10635); assay: CYP enzyme inhibition in pooled human liver microsomes (bufuralol hydrochloride); type: in vitro ADME
Protocol: (§1) Typical substrate metabolic responses of five major human CYP subtypes (CYP1A2, CYP2C9, CYP2C19, CYP2D6, CYP3A4) were evaluated using 150-donor pooled human liver microsomes (purchased from Corning, Cat. No.: 452117). The influence of different concentrations of each compound to be tested on metabolic responses of phenacetin (CYP1A2), diclofenac sodium (CYP2C9), S-mephenytoin (CYP2C19), bufuralol hydrochloride (CYP2D6), and midazolam (CYP3A4) was determined by liquid chromatography-mass spectrometry (LC/MS/MS). […] Then 200 μL of acetonitrile solution containing 3% formic acid and 40 nM internal standard verapamil was added and centrifuged at 4000 rpm for 50 min. The mixture was cooled on ice for 20 min and centrifuged at 4000 rpm for 20 min to precipitate the protein. Then 200 μL of supernatant was analyzed by LC-MS/MS. The peak area was calculated from the chromatogram. The residual activity ratio (%) was calculated according to the following equation: Peak area ratio=metabolite peak area/internal standard peak area Residual activity ratio (%)=peak area ratio of compounds-to-be-tested group/peak area ratio of blank group The half inhibitory concentration (IC50) for CYP was calculated by Excel XLfit 5.3.1.3.

CYP2C19 = CYP2C19 (Homo sapiens (Human), UniProt P33261); assay: CYP enzyme inhibition in pooled human liver microsomes (S-mephenytoin); type: in vitro ADME
Chain of CYP2C19 (P33261 whole entry): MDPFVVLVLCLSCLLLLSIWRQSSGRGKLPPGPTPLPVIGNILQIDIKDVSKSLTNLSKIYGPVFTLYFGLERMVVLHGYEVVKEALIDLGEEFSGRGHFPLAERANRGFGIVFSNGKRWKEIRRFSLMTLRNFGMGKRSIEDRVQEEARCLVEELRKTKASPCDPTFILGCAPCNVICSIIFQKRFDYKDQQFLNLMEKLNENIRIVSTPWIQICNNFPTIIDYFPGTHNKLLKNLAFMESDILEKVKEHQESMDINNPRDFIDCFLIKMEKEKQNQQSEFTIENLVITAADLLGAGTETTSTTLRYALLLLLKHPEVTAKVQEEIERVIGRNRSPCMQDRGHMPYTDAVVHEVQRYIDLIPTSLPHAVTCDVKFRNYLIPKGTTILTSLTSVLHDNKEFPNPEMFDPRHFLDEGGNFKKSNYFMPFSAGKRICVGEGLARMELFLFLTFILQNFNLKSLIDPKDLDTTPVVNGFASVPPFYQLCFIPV
Protocol: as §1

CYP3A4 = CYP3A4 (Homo sapiens (Human), UniProt P08684); assay: CYP enzyme inhibition in pooled human liver microsomes (midazolam); type: in vitro ADME
Chain of CYP3A4 (P08684 whole entry): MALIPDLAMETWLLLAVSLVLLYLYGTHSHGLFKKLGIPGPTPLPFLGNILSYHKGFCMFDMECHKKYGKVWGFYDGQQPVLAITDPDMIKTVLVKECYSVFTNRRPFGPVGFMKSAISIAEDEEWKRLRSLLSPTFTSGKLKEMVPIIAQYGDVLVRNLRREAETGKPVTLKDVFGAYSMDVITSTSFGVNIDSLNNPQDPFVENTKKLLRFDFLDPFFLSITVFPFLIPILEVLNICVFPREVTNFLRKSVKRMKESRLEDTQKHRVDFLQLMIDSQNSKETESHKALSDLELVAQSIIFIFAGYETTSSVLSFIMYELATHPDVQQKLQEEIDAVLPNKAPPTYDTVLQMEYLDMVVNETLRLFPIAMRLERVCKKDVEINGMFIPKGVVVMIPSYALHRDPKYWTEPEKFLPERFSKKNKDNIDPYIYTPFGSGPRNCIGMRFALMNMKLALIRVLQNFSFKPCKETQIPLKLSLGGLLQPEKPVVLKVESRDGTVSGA
Protocol: as §1

CYP2C9 = CYP2C9 (Homo sapiens (Human), UniProt P11712); assay: CYP enzyme inhibition in pooled human liver microsomes (diclofenac sodium); type: in vitro ADME
Chain of CYP2C9 (P11712 whole entry): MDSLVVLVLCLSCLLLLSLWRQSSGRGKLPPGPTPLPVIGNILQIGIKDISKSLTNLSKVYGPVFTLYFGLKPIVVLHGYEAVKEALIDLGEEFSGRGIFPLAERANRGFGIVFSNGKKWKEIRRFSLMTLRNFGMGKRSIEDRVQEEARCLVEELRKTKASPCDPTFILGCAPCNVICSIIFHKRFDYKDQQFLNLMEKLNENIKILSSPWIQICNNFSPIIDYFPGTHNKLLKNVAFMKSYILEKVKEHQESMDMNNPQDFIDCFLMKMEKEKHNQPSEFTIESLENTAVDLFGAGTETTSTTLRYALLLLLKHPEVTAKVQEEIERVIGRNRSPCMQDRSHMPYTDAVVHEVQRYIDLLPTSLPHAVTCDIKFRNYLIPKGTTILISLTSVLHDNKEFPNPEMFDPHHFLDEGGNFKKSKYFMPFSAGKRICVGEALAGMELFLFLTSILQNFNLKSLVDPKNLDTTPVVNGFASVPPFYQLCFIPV
Protocol: as §1

PXR = PXR (Homo sapiens (Human), UniProt O75469); assay: Potential for PXR activation in DPX2 cells; type: cell-based; details: 10 μM, versus 20 μM rifampicin
Chain of PXR (O75469 whole entry): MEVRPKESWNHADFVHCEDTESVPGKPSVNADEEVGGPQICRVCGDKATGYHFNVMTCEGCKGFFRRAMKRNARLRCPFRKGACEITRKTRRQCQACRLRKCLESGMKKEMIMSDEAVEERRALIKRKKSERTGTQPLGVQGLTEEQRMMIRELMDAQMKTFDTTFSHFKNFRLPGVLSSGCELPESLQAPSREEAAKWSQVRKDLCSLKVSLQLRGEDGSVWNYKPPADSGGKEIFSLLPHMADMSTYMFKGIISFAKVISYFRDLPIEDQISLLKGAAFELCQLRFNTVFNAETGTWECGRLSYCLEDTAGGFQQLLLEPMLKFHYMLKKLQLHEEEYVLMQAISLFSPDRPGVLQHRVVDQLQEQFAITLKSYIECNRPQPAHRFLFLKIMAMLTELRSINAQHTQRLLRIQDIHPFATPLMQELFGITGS
Protocol: DMSO solutions of the compounds to be tested and the control compound rifampicin solution were prepared, and diluted with Puracyp dosing medium (Puracyp, Cat. No: D-500-100) at 37° C. to respective test concentrations. The final concentrations of the compounds to be tested were 30 μM, 10 μM, and 1 μM, respectively, and the final concentration of rifampicin was 20 μM. The final concentration of DMSO in the test solution was 0.1%. In addition, 0.1% DMSO solution prepared with Puracyp dosing medium was used as a control.
DPX2 cells were suspended in Puracyp Culture medium (Puracyp, Cat No.: C-500-100) at a cell density of 4.5×10^5 cell/mL. Then, the suspension was placed on a 96-well culture plate at 100 μL/well for incubation at 37° C. for 24 h. The medium in appropriate wells of the 96-well culture plate was replaced (three times per well) by 100 μL of solution of the compounds to be tested and a control compound solution. After replacement, the plate was incubated at 37° C. for 24 h. The medium was then replaced (three times per well) by a newly prepared test solution of the compounds to be tested and a rifampicin test solution, and the plate was incubated at 37° C. for 24 h.
The medium in the 96-well culture plate was pipetted and washed twice with PBS. To each well, 50 μL of reagent diluted as required by CellTiter-Fluor™ Cell Viability Assay Kit (Promega, Cat. No.: G6082) was added, and incubated at 37° C. for 0.5 h. The 96-well plate was cooled to room temperature, and the fluorescence value of each well at 505 nm was measured in a fluorescence mode with a microplate reader at an excitation wavelength of 400 nm. Then, 50 μL of reagent prepared as required by One-Glo Luciferase Assay System (Promega, Cat. No.: E6120) was added to each well, and the mixture was incubated at room temperature for 5 min. The luminescence value of each well was read by using a lumen meter.
Normalized luciferase activity was determined by RLU/RFU, and the RLU and RFU of the samples were mean values of duplicate wells, respectively.
[formula] • Fold of activation: fold of activation of normalized luciferase; • RLUtest: measured luminescence value of test wells at each test dose of test compounds; • RLUvehicle: measured luminescence value of test wells when tested with the control DMSO solution; • RFUtest: measured fluorescence value of test wells at each test dose of test compounds; • RFUvehicle: measured fluorescence value of test wells when tested with the control DMSO solution.
The percentage of positive control was calculated as follows:
% Positive control=(fold activationtest compound−1)/(fold activationpositive control compound−1)×100% • % Positive control: percentage of PXR activation compared with 20 μM rifampicin activation at each test dose of test compounds; • Fold activationtest compound: fold of activation of normalized luciferase at each test dose of test compounds; • Fold activationpositive control compound: fold of activation of normalized luciferase of test compounds under 20 μM rifampicin.

CYP1A2 = CYP1A2 (Homo sapiens (Human), UniProt P05177); assay: CYP enzyme inhibition in pooled human liver microsomes (phenacetin); type: in vitro ADME
Chain of CYP1A2 (P05177 whole entry): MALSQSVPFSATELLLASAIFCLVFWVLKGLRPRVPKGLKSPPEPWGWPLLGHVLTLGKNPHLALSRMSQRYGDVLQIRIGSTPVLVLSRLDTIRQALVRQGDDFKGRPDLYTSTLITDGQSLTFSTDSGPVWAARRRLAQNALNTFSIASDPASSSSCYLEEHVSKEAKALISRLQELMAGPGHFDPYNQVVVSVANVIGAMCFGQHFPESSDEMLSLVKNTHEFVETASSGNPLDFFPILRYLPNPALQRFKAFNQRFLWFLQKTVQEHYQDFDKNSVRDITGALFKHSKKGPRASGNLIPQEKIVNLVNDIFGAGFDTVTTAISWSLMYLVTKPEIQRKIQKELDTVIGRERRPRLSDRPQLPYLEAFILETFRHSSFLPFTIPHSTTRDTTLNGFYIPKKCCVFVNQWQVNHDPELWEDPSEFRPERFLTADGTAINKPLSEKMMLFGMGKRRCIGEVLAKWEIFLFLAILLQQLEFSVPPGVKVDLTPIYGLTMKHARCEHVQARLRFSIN
Protocol: as §1

[1] = target: USP1 (Recombinant Human His6-USP1/His6-UAF1 Complex Protein) (Homo sapiens (Human), UniProt O94782); assay: In vitro activity assay for USP1 (Ub-CHOP2-Reporter deubiquitination assay); type: biochemical; details: 0.5 h incubation at room temperature, read-out: In vitro inhibitory activity of USP1 IC50
Chain of USP1 (Recombinant Human His6-USP1/His6-UAF1 Complex Protein) (O94782 whole entry): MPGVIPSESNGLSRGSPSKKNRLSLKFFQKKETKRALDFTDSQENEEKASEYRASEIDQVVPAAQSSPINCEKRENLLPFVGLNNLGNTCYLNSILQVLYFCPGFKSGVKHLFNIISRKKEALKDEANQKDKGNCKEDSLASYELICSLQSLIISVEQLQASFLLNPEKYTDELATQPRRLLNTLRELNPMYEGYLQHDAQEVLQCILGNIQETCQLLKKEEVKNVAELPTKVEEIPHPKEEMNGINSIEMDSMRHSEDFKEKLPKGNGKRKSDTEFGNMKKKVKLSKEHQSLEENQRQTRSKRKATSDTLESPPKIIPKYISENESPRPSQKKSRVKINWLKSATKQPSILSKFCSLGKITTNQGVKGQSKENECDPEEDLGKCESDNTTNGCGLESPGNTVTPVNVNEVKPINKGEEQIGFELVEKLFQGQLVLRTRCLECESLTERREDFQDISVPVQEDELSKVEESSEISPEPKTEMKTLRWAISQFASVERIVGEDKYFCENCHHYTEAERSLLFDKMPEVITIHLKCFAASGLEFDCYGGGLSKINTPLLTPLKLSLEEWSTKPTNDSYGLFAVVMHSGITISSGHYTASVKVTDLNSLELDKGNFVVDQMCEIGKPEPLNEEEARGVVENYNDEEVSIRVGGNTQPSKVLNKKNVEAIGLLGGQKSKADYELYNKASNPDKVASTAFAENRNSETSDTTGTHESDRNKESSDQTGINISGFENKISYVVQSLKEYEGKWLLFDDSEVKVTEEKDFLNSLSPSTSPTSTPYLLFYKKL
Chain of USP1 (Recombinant Human His6-USP1/His6-UAF1 Complex Protein) (Q8TAF3 whole entry partner): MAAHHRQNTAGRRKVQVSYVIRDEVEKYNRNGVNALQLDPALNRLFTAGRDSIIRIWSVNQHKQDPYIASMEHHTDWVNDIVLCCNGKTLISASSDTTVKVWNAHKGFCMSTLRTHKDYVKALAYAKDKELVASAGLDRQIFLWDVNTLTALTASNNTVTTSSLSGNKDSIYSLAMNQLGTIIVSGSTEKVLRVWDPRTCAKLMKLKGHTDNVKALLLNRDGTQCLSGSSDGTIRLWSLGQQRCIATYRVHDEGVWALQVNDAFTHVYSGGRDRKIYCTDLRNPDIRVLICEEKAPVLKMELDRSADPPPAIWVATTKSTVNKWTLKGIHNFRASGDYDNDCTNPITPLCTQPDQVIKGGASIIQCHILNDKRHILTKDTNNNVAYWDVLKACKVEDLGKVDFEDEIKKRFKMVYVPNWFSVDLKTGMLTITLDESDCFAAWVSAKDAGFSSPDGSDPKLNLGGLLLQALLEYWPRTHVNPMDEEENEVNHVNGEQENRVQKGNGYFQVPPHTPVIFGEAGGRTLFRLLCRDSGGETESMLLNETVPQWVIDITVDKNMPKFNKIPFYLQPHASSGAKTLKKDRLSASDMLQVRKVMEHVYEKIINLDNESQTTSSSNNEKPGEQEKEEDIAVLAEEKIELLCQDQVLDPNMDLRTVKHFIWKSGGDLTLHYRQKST
How it was run: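 His6-USP1/His6-UAF1 complex was mixed with compound in 20 mM Tris-HCl pH 8.0, 2 mM CaCl2, 2 mM β-mercaptoethanol and 0.05% CHAPS. Ub-CHOP2 reporter system plus substrate was added, then incubated 0.5 h at room temperature. IC50 came from a four-parameter logistic fit.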

Chain of CYP2D6 (P10635 whole entry): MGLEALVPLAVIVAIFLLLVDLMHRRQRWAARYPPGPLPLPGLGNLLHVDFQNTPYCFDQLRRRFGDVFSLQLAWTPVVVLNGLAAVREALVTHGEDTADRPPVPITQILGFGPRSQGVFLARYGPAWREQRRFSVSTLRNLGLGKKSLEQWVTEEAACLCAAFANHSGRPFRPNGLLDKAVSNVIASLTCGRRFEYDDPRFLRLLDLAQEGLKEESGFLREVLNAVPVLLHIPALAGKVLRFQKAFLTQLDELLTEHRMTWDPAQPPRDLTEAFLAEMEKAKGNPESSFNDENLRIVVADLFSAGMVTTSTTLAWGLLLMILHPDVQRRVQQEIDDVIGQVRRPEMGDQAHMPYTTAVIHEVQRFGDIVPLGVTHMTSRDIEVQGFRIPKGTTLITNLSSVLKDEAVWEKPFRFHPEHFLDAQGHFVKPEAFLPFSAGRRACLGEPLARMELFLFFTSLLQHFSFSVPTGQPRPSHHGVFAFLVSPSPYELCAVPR

## COc1ncnc(C2CC2)c1-c1ncc2c(n1)N(Cc1ccc(-n3nc(C(F)(F)F)cc3C)cc1)C(=O)OC2(C)C [Compound 74, 7-(4-cyclopropyl-6-methoxypyrimidin-5-yl)-4,4-dimethyl-1-(4-(5-methyl-3-(trifluoromethyl)-1H-pyrazol-1-yl)benzyl)-1,4-dihydro-2H-pyrimido[4,5-d][1,3]oxazin-2-one]
CYP2D6
  IC50: > 30 µM
CYP2C19
  IC50: 10.2 µM
CYP3A4
  IC50: > 30 µM
MDA-MB-436 cells;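 further: MDA-MB-436 proliferation over 7 days with compound, viability read as ATP luminescence (CellTiter-Glo), inhibition relative to DMSO-only wells, day 0 signal as background, GI50 from four-parameter fit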
  GI50: 0.0307 µM
CYP2C9
  IC50: 4.5 µM
PXR
  PXR activation (% Positive control): 13.2 % Positive control
CYP1A2
  IC50: > 30 µM
[1]
  IC50: 0.0173 µM
